Patent US10154988B2, “Methods and compositions for treating schizophrenia” (The Johns Hopkins University, priority 2012, dated 2018)
“Also recorded” adds a separate entry of the source.

Key:
[1] = test system: reelin in Entorhinal Cortex (EC2); experiment: reelin mRNA in situ hybridization in entorhinal cortex after 4-week levetiracetam; assay type: in vivo, rat; settings: 10 mg/kg/day, osmotic minipumps, 28 days; vs AI-VEH t(13)=2.386, p=0.033
Method: (§1) Under isoflurane anesthesia, memory-impaired aged rats are implanted subcutaneously in the intrascapular region with osmotic mini-pumps (ALZET,
(§2) Durect Corporation, Cupertino, Calif.) with levetiracetam (10 mg/kg/day) or saline vehicle for four weeks prior to perfusion. Young rats, which served as controls, receive either saline vehicle in mini-pumps or no implantation.
At the end of the 4-week treatment period, rats are anesthetized with isoflurane and perfused transcardiacally with 0.1 M phosphate buffer saline, followed by 4% paraformaldehyde in phosphate buffer. Brains are removed and post-fixed in paraformaldehyde overnight. The brains are then moved into 4% paraformaldehyde in phosphate buffer containing 16% sucrose. […]
Probe templates are synthesized as described in Haberman et al. (2008). […] The final probe is resuspended in RNase-free water and the specific activity is determined by scintillation counter.
In situ hybridization is carried out as described by Haberman et al., (2008). […] Slides are dried overnight, exposed to a phosphoimager screen, and quantified by using ImageQuant (GE Healthcare). Digital images are acquired of entorhinal cortical sections from the same levels for all animals and the subregion of interest is outlined and quantified. […]

aMCI subjects [2] = experiment: neuropsychological tests outside the scanner (Buschke, Benton, Verbal Paired Associates); assay type: in vivo, human; settings: 125 mg twice a day for two weeks
Source text: All participants undergo neuropsychological evaluation at the time of assessment for treatment efficacy (Visits 1 and 2), as well as at the Baseline Visit. The evaluation occurs outside of the scanner and includes the Buschke Selective Reminding Test (Buschke and Fuld, 1974) and the Verbal Paired Associates subtest, the Logical Memory subtest, the Visual Reproduction subtest of the Wechsler Memory Scale-Revised (WMS-R) (Wechsler, 1997), and the Benton Visual Retention Test, as these tasks are particularly sensitive to medial temporal lobe function and early memory problems (Marquis et al., 2002 and Masur et al., 1994). Additionally, subjects are asked to complete tests of more general cognitive function such as tests to assess general mental status, executive function, attention and general naming ability. All neuropsychological tests are administered by a trained research assistant during a 60-minute session. As the three neuropsychological assessments in this study occur within a time period of 8 weeks, different versions of the neuropsychological tests are used to minimize test specific practice effects. Breaks are provided to the subject as needed.

somatostatin in DG hilus = experiment: somatostatin immunohistochemistry, SOM-immunoreactive hilar neuron counts after 4-week levetiracetam; assay type: in vivo, rat; settings: 10 mg/kg/day, osmotic minipumps, four weeks; AI-LEV vs Y p=0.679, AI-LEV vs AI-VEH p<0.01
Method: as §1, §2
At the end of the 4-week treatment period, rats are anesthetized with isoflurane and perfused transcardiacally with 0.1 M phosphate buffer saline, followed by 4% paraformaldehyde in phosphate buffer. Brains are removed and post-fixed in paraformaldehyde overnight. […]
Tissue is labeled with anti-SOM antiserum (Santa Cruz Biotechnology; cat. no. SC7819-P) using an established immunoperoxidase protocol and tissue sections are processed concurrently to minimize inter-replication variability (Haberman et al., 2009). […] The secondary antibody is detected with avidin-biotin complex (ABC Elite; Vector Laboratories Inc., Burlingame, Calif.) and the avidin-biotin complex is visualized with nickel-enhanced diaminobenzadine (Vector Laboratories Inc., Burlingame, Calif.). […]
Interneuron quantification is performed using a Zeiss Axioplan 2 microscope equipped with a motorized stage. […] Neuron counts are analyzed as the total number of hilar interneurons per hippocampal section for each rat.

[3] = test system: DG/CA3 region of aMCI subjects; experiment: fMRI activity in DG/CA3 during lure stimuli correctly identified as similar; assay type: in vivo, human
Method: A within-subjects trial of 8 weeks duration, involving 17 amnestic MCI (aMCI) subjects and 17 age-matched controls with a low dose treatment of levetiracetam is conducted. […] Cognitive testing and fMRI imaging data are obtained from the subjects after each two week period of drug/placebo treatment. […] The […]

aMCI subjects [4] = experiment: explicit 3-alternative forced choice task (lure-based memory performance); assay type: in vivo, human

Which results are given for `CC[C@@H](C(N)=O)N1CCCC1=O` [levetiracetam, (2S)-2-(2-oxopyrrolidin-1-yl) butanamide]?
levels of reelin (mRNA expression) in Entorhinal Cortex (EC2) [1]: restores the levels of reelin; also recorded: significantly increases the expression of reelin; also recorded: restores reelin in Entorhinal Cortex (EC2); performance in Benton Visual Retention Test (aMCI subjects [2]): fails to rescue performance; performance in Buschke Selective Reminding Test—Delayed Recall (aMCI subjects [2]): fails to rescue performance; performance in Verbal Paired Associates Test—Delayed Recall (aMCI subjects [2]): fails to rescue performance; performance in Verbal Paired Associates Test—Recognition (aMCI subjects [2]): fails to rescue performance; levels of somatostatin in DG hilus (SOM-immunoreactive hilar neurons) (somatostatin in DG hilus): restores the levels of somatostatin; also recorded: restores sematostatin in DG hilus; DG/CA3 hyperactivity (fMRI mean activity) ([3]; 125 mg twice a day for two weeks vs placebo, p=0.037): reduces DG/CA3 hyper-activity; DG/CA3 hyperactivity (fMRI mean activity) ([3]; 250 mg BID for two weeks vs placebo, N=17): does not significantly reduce; also recorded: No such improvement is observed; performance in the explicit 3-alternative forced choice task (aMCI subjects [4]; 62.5 mg BID for two weeks vs placebo, p=0.041): further improved performance in cognitive tests; also recorded: improves significantly; performance in the explicit 3-alternative forced choice task (aMCI subjects [4]; 125 mg twice a day for two weeks vs placebo, p=0.039): improves significantly; performance in the explicit 3-alternative forced choice task (aMCI subjects [4]; 250 mg BID for two weeks vs placebo, p=0.2396): does not significantly improve
